What was measured:
GALAP (Galium) = experiment: Postemergence herbicidal evaluation; format: in vivo, Galium aparine; conditions: for Herbicidal rating GALAP: postemergence
How it was run: (§1)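 Visual 0-9 injury score (stand, vigor, malformation, size, chlorosis, appearance vs untreated) taken four to five weeks post-spray, averaged across repeat tests. Test plants about two weeks old; foliar spray of acetone/water (1:1) with 0.5% surfactant delivering ~0.0156-0.500 kg active/ha.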

CYPIR (Rice Flatsedge) [1] = experiment: Postemergence weed control under flooded paddy conditions; format: in vivo, Cyperus iria; conditions: postemergence weeds, rated 3 to 4 weeks after treatment
How it was run: (§2)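 With weeds 3 to 5 cm tall and rice at the 1.5 to 2.5 leaf stage, containers were flooded and water held 1.5 to 3 cm above soil. Compounds in 50/50 v/v aqueous/acetone went into the flood water at about 0.0313 to 0.500 kg/ha a.i. Effects were visually rated 0–9 against controls after three to four weeks in the greenhouse.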

SETVI (Foxtail, Green) = experiment: Postemergence herbicidal evaluation; format: in vivo, Setaria viridis; conditions: for Herbicidal rating SETVI: postemergence
How it was run: as §1

ORYSAT (Rice, Tebonnet) = experiment: Postemergence herbicidal evaluation; format: in vivo, Oryza sativa, (L.) Tebonnet; conditions: for Herbicidal rating ORYSAT: postemergence
How it was run: as §1

ABUTH (Velvetleaf) = experiment: Postemergence herbicidal evaluation; format: in vivo, Abutilon theophrasti; conditions: for Herbicidal rating ABUTH: postemergence
How it was run: as §1

[2] = system: IPOHE (Morningglory, Ivyleaf); experiment: Preemergence herbicidal evaluation; format: in vivo, Ipomoea hederacea; conditions: rated 4-5 weeks after treatment
How it was run: (§3)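 Seeds were planted in potting soil in cups, then sprayed preemergence with the test compound in aqueous acetone at about 0.0156 to 0.500 kg per hectare. Cups were kept under greenhouse conditions and visually rated 4–5 weeks after treatment on a 0–9 scale against an untreated control.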

[3] = system: SAGPY (Arrowhead (Pygmaea)); experiment: Postemergence weed control under flooded paddy conditions; format: in vivo, Sagittaria pygmaea; conditions: postemergence weeds, rated 3 to 4 weeks after treatment
How it was run: as §2

MOOVA (Monochoria) = experiment: Preemergence weed control under flooded paddy conditions; format: in vivo, Monochoria vaginalis; conditions: rated 3-4 weeks after treatment
How it was run: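 Silt loam, seeds in top 0.5 cm; flood held 1.5-3 cm; test cpd as acetone/water 50/50 into flood water, ~0.0313-0.500 kg/ha a.i.; greenhouse 3-4 wk; visual 0-9 score vs control.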

ZEAMX (Corn, Field) = experiment: Preemergence herbicidal evaluation; format: in vivo, Zea mays; conditions: rated 4-5 weeks after treatment
How it was run: as §3

[4] = system: TRZAWR (Wheat, Winter, cv Riband); experiment: Preemergence herbicidal evaluation; format: in vivo, Triticum aestivum; conditions: rated 4-5 weeks after treatment
How it was run: as §3

CYPSE (Flatsedge) = experiment: Postemergence weed control under flooded paddy conditions; format: in vivo, Cyperus serotinus; conditions: postemergence weeds, rated 3 to 4 weeks after treatment
How it was run: as §2

[5] = system: ECHORC (Watergrass (Calif.)); experiment: Preemergence weed control under flooded paddy conditions; format: in vivo, Echinochloa oryzoides; conditions: rated 3-4 weeks after treatment
How it was run: (§4)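 Seeds or propagules sown in silt loam kept flooded 1.5-3 cm; compounds in 50/50 acetone/water pipetted into flood water at about 0.0313 to 0.500 kg/ha. Greenhouse; visual 0-9 rating versus untreated control 3-4 weeks after treatment.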

ECHCG (Barnyardgrass) = experiment: Postemergence herbicidal evaluation; format: in vivo, Echinochloa crus-galli; conditions: for Herbicidal rating ECHCG: postemergence
How it was run: as §1

CYPIR (Rice Flatsedge) [6] = experiment: Preemergence weed control under flooded paddy conditions; format: in vivo, Cyperus iria; conditions: rated 3-4 weeks after treatment
How it was run: as §4

Structure (SMILES): CC(C)S(=O)(=O)NC(=O)CC1SC(=Nc2cc(-n3c(=O)cc(C(F)(F)F)n(C)c3=O)c(F)cc2Cl)N(C)C1=O (stereo not shown) [Compound 119, 2-{{2-Chloro-5-[3,6-dihydro-3-methyl-2,6-dioxo-4-(trifluoromethyl)-1(2H)-pyrimidinyl]-4-fluorophenyl}imino}-N-(isopropylsulfonyl)-3-methyl-4-oxo-5-thiazolidineacetamide]
- Herbicidal rating GALAP (GALAP (Galium); rate 0.0156 kg/ha): 1.0
- Herbicidal rating GALAP (GALAP (Galium); rate 0.0313 kg/ha): 1.0
- Herbicidal rating GALAP (GALAP (Galium); rate 0.0625 kg/ha): 3.0
- Herbicidal rating CYPIR (CYPIR (Rice Flatsedge) [1]; Rate 0.0313 kg/ha): 2.0
- Herbicidal rating CYPIR (CYPIR (Rice Flatsedge) [1]; Rate 0.1250 kg/ha): 6.0
- Herbicidal rating CYPIR (CYPIR (Rice Flatsedge) [1]; Rate 0.2500 kg/ha): 9.0
- Herbicidal rating SETVI (SETVI (Foxtail, Green); rate 0.0156 kg/ha): 3.0
- Herbicidal rating SETVI (SETVI (Foxtail, Green); rate 0.0313 kg/ha): 9.0
- Herbicidal rating SETVI (SETVI (Foxtail, Green); rate 0.0625 kg/ha): 9.0
- Herbicidal rating ORYSAT (ORYSAT (Rice, Tebonnet); rate 0.0156 kg/ha): 1.5
- Herbicidal rating ORYSAT (ORYSAT (Rice, Tebonnet); rate 0.0313 kg/ha): 2.0
- Herbicidal rating ORYSAT (ORYSAT (Rice, Tebonnet); rate 0.0625 kg/ha): 3.0
- Herbicidal rating ABUTH (ABUTH (Velvetleaf); rate 0.0156 kg/ha): 9.0
- Herbicidal rating ABUTH (ABUTH (Velvetleaf); rate 0.0313 kg/ha): 9.0
- Herbicidal rating ABUTH (ABUTH (Velvetleaf); rate 0.0625 kg/ha): 9.0
- Preemergence herbicidal rating IPOHE ([2]; rate 0.0156 kg/ha): 0.0
- Preemergence herbicidal rating IPOHE ([2]; rate 0.0313 kg/ha): 0.0
- Preemergence herbicidal rating IPOHE ([2]; rate 0.0625 kg/ha): 0.0
- Preemergence herbicidal rating IPOHE ([2]; rate 0.1250 kg/ha): 9.0
- Preemergence herbicidal rating IPOHE ([2]; rate 0.2500 kg/ha): 9.0
- Herbicidal rating SAGPY ([3]; Rate 0.0313 kg/ha): 0.0
- Herbicidal rating SAGPY ([3]; Rate 0.0625 kg/ha): 0.0
- Herbicidal rating SAGPY ([3]; Rate 0.1250 kg/ha): 0.0
- Herbicidal rating SAGPY ([3]; Rate 0.2500 kg/ha): 0.0
- herbicidal effect rating, MOOVA (MOOVA (Monochoria); 0.0313 kg/ha): 7.5
- herbicidal effect rating, MOOVA (MOOVA (Monochoria); 0.0625 kg/ha): 8.0
- herbicidal effect rating, MOOVA (MOOVA (Monochoria); 0.1250 kg/ha): 9.0
- herbicidal effect rating, MOOVA (MOOVA (Monochoria); 0.2500 kg/ha): 9.0
- Preemergence herbicidal rating ZEAMX (ZEAMX (Corn, Field); rate 0.0156 kg/ha): 0.0
- Preemergence herbicidal rating ZEAMX (ZEAMX (Corn, Field); rate 0.0313 kg/ha): 0.0
- Preemergence herbicidal rating ZEAMX (ZEAMX (Corn, Field); rate 0.0625 kg/ha): 0.0
- Preemergence herbicidal rating ZEAMX (ZEAMX (Corn, Field); rate 0.1250 kg/ha): 0.0
- Preemergence herbicidal rating ZEAMX (ZEAMX (Corn, Field); rate 0.2500 kg/ha): 1.0
- Preemergence herbicidal rating TRZAWR ([4]; rate 0.0156 kg/ha): 0.0
- Preemergence herbicidal rating TRZAWR ([4]; rate 0.0313 kg/ha): 0.0
- Preemergence herbicidal rating TRZAWR ([4]; rate 0.0625 kg/ha): 0.0
- Preemergence herbicidal rating TRZAWR ([4]; rate 0.1250 kg/ha): 0.0
- Preemergence herbicidal rating TRZAWR ([4]; rate 0.2500 kg/ha): 0.0
- Herbicidal rating CYPSE (CYPSE (Flatsedge); Rate 0.0313 kg/ha): 0.0
- Herbicidal rating CYPSE (CYPSE (Flatsedge); Rate 0.0625 kg/ha): 0.0
- Herbicidal rating CYPSE (CYPSE (Flatsedge); Rate 0.1250 kg/ha): 0.0
- herbicidal effect rating, ECHORC ([5]; 0.0313 kg/ha): 8.0
- herbicidal effect rating, ECHORC ([5]; 0.0625 kg/ha): 9.0
- herbicidal effect rating, ECHORC ([5]; 0.1250 kg/ha): 9.0
- herbicidal effect rating, ECHORC ([5]; 0.2500 kg/ha): 9.0
- Herbicidal rating ECHCG (ECHCG (Barnyardgrass); rate 0.0156 kg/ha): 0.0
- Herbicidal rating ECHCG (ECHCG (Barnyardgrass); rate 0.0313 kg/ha): 0.0
- Herbicidal rating ECHCG (ECHCG (Barnyardgrass); rate 0.0625 kg/ha): 1.0
- herbicidal effect rating, CYPIR (CYPIR (Rice Flatsedge) [6]; 0.0313 kg/ha): 4.5
- herbicidal effect rating, CYPIR (CYPIR (Rice Flatsedge) [6]; 0.0625 kg/ha): 7.0
- herbicidal effect rating, CYPIR (CYPIR (Rice Flatsedge) [6]; 0.1250 kg/ha): 8.5
- herbicidal effect rating, CYPIR (CYPIR (Rice Flatsedge) [6]; 0.2500 kg/ha): 8.0

Structure (SMILES): CN1C(=O)C(CC(=O)O)SC1=Nc1cc(-n2c(=O)cc(C(F)(F)F)n(C)c2=O)c(F)cc1Cl (stereo not shown) [Compound 63, 2-{{2-Chloro-5-[3,6-dihydro-3-methyl-2,6-dioxo-4-(trifluoromethyl)-1(2H)-pyrimidinyl]-4-fluoro-phenyl}imino}-3-methyl-4-oxo-5-thiazolidineacetic acid]
- Postemergence herbicidal rating GALAP (GALAP (Galium); Rate 0.0158 kg/ha): 1.0
- Postemergence herbicidal rating GALAP (GALAP (Galium); Rate 0.0315 kg/ha): 6.0
- Postemergence herbicidal rating GALAP (GALAP (Galium); Rate 0.0630 kg/ha): 7.0
- Herbicidal rating CYPIR (CYPIR (Rice Flatsedge) [1]; Rate 0.0313 kg/ha): 2.0
- Herbicidal rating CYPIR (CYPIR (Rice Flatsedge) [1]; Rate 0.0625 kg/ha): 6.0
- Herbicidal rating CYPIR (CYPIR (Rice Flatsedge) [1]; Rate 0.1250 kg/ha): 7.0
- Herbicidal rating CYPIR (CYPIR (Rice Flatsedge) [1]; Rate 0.2500 kg/ha): 7.0
- Postemergence herbicidal rating SETVI (SETVI (Foxtail, Green); Rate 0.0158 kg/ha): 9.0
- Postemergence herbicidal rating SETVI (SETVI (Foxtail, Green); Rate 0.0315 kg/ha): 9.0
- Postemergence herbicidal rating SETVI (SETVI (Foxtail, Green); Rate 0.0630 kg/ha): 9.0
- Postemergence herbicidal rating ORYSAT (ORYSAT (Rice, Tebonnet); Rate 0.0158 kg/ha): 5.0
- Postemergence herbicidal rating ORYSAT (ORYSAT (Rice, Tebonnet); Rate 0.0315 kg/ha): 5.0
- Postemergence herbicidal rating ORYSAT (ORYSAT (Rice, Tebonnet); Rate 0.0630 kg/ha): 6.0
- Postemergence herbicidal rating ABUTH (ABUTH (Velvetleaf); Rate 0.0158 kg/ha): 9.0
- Postemergence herbicidal rating ABUTH (ABUTH (Velvetleaf); Rate 0.0315 kg/ha): 6.0
- Postemergence herbicidal rating ABUTH (ABUTH (Velvetleaf); Rate 0.0630 kg/ha): 9.0
- Preemergence herbicidal rating IPOHE ([2]; rate 0.0156 kg/ha): 0.0
- Preemergence herbicidal rating IPOHE ([2]; rate 0.0313 kg/ha): 1.0
- Preemergence herbicidal rating IPOHE ([2]; rate 0.0625 kg/ha): 6.0
- Preemergence herbicidal rating IPOHE ([2]; rate 0.1250 kg/ha): 7.0
- Preemergence herbicidal rating IPOHE ([2]; rate 0.2500 kg/ha): 9.0
- Herbicidal rating SAGPY ([3]; Rate 0.0313 kg/ha): 4.0
- Herbicidal rating SAGPY ([3]; Rate 0.0625 kg/ha): 7.0
- Herbicidal rating SAGPY ([3]; Rate 0.1250 kg/ha): 9.0
- Herbicidal rating SAGPY ([3]; Rate 0.2500 kg/ha): 9.0
- MOOVA herbicidal effect rating (MOOVA (Monochoria); 0.0313 kg/ha): 9.0
- MOOVA herbicidal effect rating (MOOVA (Monochoria); 0.0625 kg/ha): 9.0
- MOOVA herbicidal effect rating (MOOVA (Monochoria); 0.1250 kg/ha): 9.0
- MOOVA herbicidal effect rating (MOOVA (Monochoria); 0.2500 kg/ha): 9.0
- Preemergence herbicidal rating ZEAMX (ZEAMX (Corn, Field); rate 0.0156 kg/ha): 0.0
- Preemergence herbicidal rating ZEAMX (ZEAMX (Corn, Field); rate 0.0313 kg/ha): 1.0
- Preemergence herbicidal rating ZEAMX (ZEAMX (Corn, Field); rate 0.0625 kg/ha): 2.0
- Preemergence herbicidal rating ZEAMX (ZEAMX (Corn, Field); rate 0.1250 kg/ha): 6.0
- Preemergence herbicidal rating ZEAMX (ZEAMX (Corn, Field); rate 0.2500 kg/ha): 7.0
- Preemergence herbicidal rating TRZAWR ([4]; rate 0.0156 kg/ha): 0.0
- Preemergence herbicidal rating TRZAWR ([4]; rate 0.0313 kg/ha): 0.0
- Preemergence herbicidal rating TRZAWR ([4]; rate 0.0625 kg/ha): 1.0
- Preemergence herbicidal rating TRZAWR ([4]; rate 0.1250 kg/ha): 6.0
- Preemergence herbicidal rating TRZAWR ([4]; rate 0.2500 kg/ha): 7.0
- Herbicidal rating CYPSE (CYPSE (Flatsedge); Rate 0.0313 kg/ha): 0.0
- Herbicidal rating CYPSE (CYPSE (Flatsedge); Rate 0.0625 kg/ha): 0.0
- Herbicidal rating CYPSE (CYPSE (Flatsedge); Rate 0.1250 kg/ha): 0.0
- Herbicidal rating CYPSE (CYPSE (Flatsedge); Rate 0.2500 kg/ha): 0.0
- ECHORC herbicidal effect rating ([5]; 0.0313 kg/ha): 0.0
- ECHORC herbicidal effect rating ([5]; 0.0625 kg/ha): 0.0
- ECHORC herbicidal effect rating ([5]; 0.1250 kg/ha): 5.0
- ECHORC herbicidal effect rating ([5]; 0.2500 kg/ha): 5.0
- Postemergence herbicidal rating ECHCG (ECHCG (Barnyardgrass); Rate 0.0158 kg/ha): 2.0
- Postemergence herbicidal rating ECHCG (ECHCG (Barnyardgrass); Rate 0.0315 kg/ha): 2.0
- Postemergence herbicidal rating ECHCG (ECHCG (Barnyardgrass); Rate 0.0630 kg/ha): 6.0
- CYPIR herbicidal effect rating (CYPIR (Rice Flatsedge) [6]; 0.0313 kg/ha): 2.0
- CYPIR herbicidal effect rating (CYPIR (Rice Flatsedge) [6]; 0.0625 kg/ha): 6.0
- CYPIR herbicidal effect rating (CYPIR (Rice Flatsedge) [6]; 0.1250 kg/ha): 7.0
- CYPIR herbicidal effect rating (CYPIR (Rice Flatsedge) [6]; 0.2500 kg/ha): 7.0

Reference: patent publication US20020137929A1, “1 - (3-heterocyclylphenyl) isothiourea, -isourea, -guanidine and -amidine herbicidal agents” (Intellectual Property Department, BASF Aktiengesellschaft, priority 1998, published 2002)
